Test results reported in patent publication US20260294864A1, “PHARMACEUTICAL COMPOSITION FOR THE TREATMENT AND PREVENTION OF HPV” (NP1 SRL, priority 2022, published 2026).

Tests used:
Type in all cases: cell-based, human
HeLa cells = test: Anti-clonogenic activity on HeLa cells (plating efficiency assay / live cell imaging); conditions: for Anti-clonal effect / end point clonal assay, clonal inhibition alone: 50 μM; for Anti-clonal effect: isolated, FIG. 1; for clonal inhibition in combination with Apigenin: 50 μM combined with Apigenin 25 μM; for clonal inhibition in combination with Apigenin / end point clonal assay, clonal inhibition alone: FIG. 9-11; for clonal inhibition in combination with Chrysin: 50 μM combined with Chrysin 25 μM; for clonal inhibition in combination with Chrysin / synergy with Galangine, Apigenin and Chrysin: FIG. 10-11; for end point clonal assay, clonal inhibition alone: administered alone
Procedure: Panel C and D: diagrammatic topographical maps of treatments and growth conditions on plates A and B respectively.
Panel A. Hela cells were challenged with serial twofold dilutions of 50 μM Luteolin (in columns 1-6) and 100 μM Galangin (columns 7-10). Hela control untreated cells in columns 11-12.
(§1) A total of 6 cell lines, outlined in Table 3, were used for this study. The cell lines were obtained from Research Centres of cell biology in Italy, United Kingdom and Germany. This research raised no ethical concern being based on entirely in vitro experiments using no patients' derived information or material. In compliance with National and International ethical rules, no informed consent is needed.
(§2) HeLa cells are the oldest continuous cell lines and were originally derived from a HPV18 positive metastatic cervical carcinoma (Scherer W F et al 1953). Siha cells are an epithelioid like cell line derived from a HPV16-positive invasive cervical squamous carcinoma (Friedel F et al 1970). Ca-Ski cells are a line harboring multiple copy of transcriptionally active HPV16 genomes (Baker C C et al 1984). Both Hela and Siha were a kind gift of prof MS Campo, The Beatson Institute for Cancer Research, Glasgow, Scotland. These two cell lines because of their versatility and ease of use were used for most of experiments reported. Ca-Ski cells were obtained through the courtesy of prof. Matthias Durst, at the Deutsch Krebsforschungzentrum—Heidelberg, FRG. These cells used together with Siha provide a model for the genetic instability and variability of cervical cancers. HK-168 is an immortalized, non-tumorigenic, continuous cell line derived from human skin keratinocytes in vitro transformed with whole HPV16 genome (De Marco F et al 2007). This cell line is reputed to recapitulate le biological features of transformed dysplastic cells and was used in preliminary experiments to set the experimental dosages and conditions. The ME-180 cells are a cell line harboring a few, transcriptionally active, copies of HPV68 and provide an in vitro model for dysplastic/neoplastic lesions induced by HPV with Intermediate oncogenic Risk (Yee C C et al 1985). The HaCaT cells, derived from a solar skin lesion by Petra Boukamp et al (1988) are here used as an in vitro equivalent of Ultra-Violet induced pre-neoplastic epithelial cells to rule out possible direct toxic effects of polyphenols. Both HaCaT and ME-180, were kindly donated by Prof. Matthias Durst. Hela, Siha, Ca-Ski, ME-180 and HaCaT were all grown in high glucose DMEM supplemented with 10% fetal calf serum (FCS). The HK-168 cells, which retained the ability to terminally differentiate under high Ca^2+ and FCS concentrations, were grown in K-SFM, a chemically defined medium supplemented with human EGF and bovine pituitary extract (ThermoFisher Scientific, Life Technologies, Monza—MI). Each cell line was sub-cultured twice a week at the appropriate split ratio according to the specific proliferative index. In no case antibiotics or antimycotics were added to the culture media. For the present study, all cell lines were retrieved from an in-house cell archive facility.
The anti-clonogenic activity was evaluated both by the current standard qualitative plating efficiency assay and by quantitative live cell imaging analysis ([…] S3 Live Cell Analysis Imaging System—Sartorius Welwyn Garden City, Hertfordshire, UK).

Siha cells [1] = test: Anti-clonogenic activity on SiHa cells (plating efficiency assay / live cell imaging); conditions: for end-point anti-clonal effect versus control untreated cells: 25.0 μM, FIG. 6-8
Procedure: In this experiment Kaempferol and Apigenin were administered to Siha cells at decremental concentrations, either in combination or alone, as shown in the topographical map (in panel C). […] Histograms in Panel B depict the number of colonies per well as evaluated by visual inspection and count.
The Histograms in Panel B depict the number of colonies per well as evaluated by visual inspection and count. • In Panel C a topographical map of plate treatments. Each condition was assayed in duplicate.
Kaempferol, Galangin, Luteolin and their combination were administered to SiHa cells at the concentrations of 25 μM each and of 12,5/12,5/6,25 μM for their combination. Treatments were allowed to stay on cells either for 2 or 4/8/16/24 hours. After that, treatments were washed out, cells washed two times with PBS, replenished with fresh medium and the anti-clonal effect was then monitored by live cell image analysis.
as §1, §2

Siha cells [2] = test: Antiproliferative effect on Siha cells, live cell analysis; conditions: Siha 1000 cells/well
Procedure: FIG. 2: live cell analysis of RNPs antiproliferative effect. Siha cells were seeded at 1000 cells/well in a 96 well plate and allowed to adhere overnight. The plate was then washed twice with PBS and replenished with 100 microliter/well fresh medium plus 50 μM of each compound. Images were taken every 12 hours; Growth curves were drawn plotting the percentage of confluence versus time. […] In fact, their growth curves outline a single spindle completely overlapping and masking the one of control untreated cells. Conversely, a distinct anti-proliferative effect is evident in panel B- where the growth curves of RNP 9 Kaempferol (solid squares), RNP 12 Luteolin (solid diamonds), RNP 16 Apigenin (solid circles) and control untreated cells (solid stars) are depicted. […] Each point represents the mean of six independent replicas. Bar width represents the Standard Deviation (SD). Consistent results were also obtained by HeLa and ME-180 cells
(§3) For antiproliferative effect cells were seeded in 96-well microplates at 1000 cells/per well (i.e.: 30 cell/mm^2), a density allowing exponential growth rate for the subsequent 8-day incubation. After overnight adhesion cell monolayers were washed and replenished with fresh media with different testing molecules, plain medium served as cell growth control.
(§4) Cell growth was then monitored by automated INCUCTE S3 imaging Systems. Images were acquired at 12-hours intervals. The analysis parameters were as follows: segmentation adjustment=0.9; hole fill <7,000 μm^2; adjusted pixel=0.
Data for growth curves, anti-clonal and Antiproliferative assays were obtained from at least three independent experiments. Each data point of quantitative anti-proliferative or anti-clonal experiments represents the mean (±SD) of eight independent replicates. Data were analyzed and plotted using Prism 6.0 software (GraphPad Software, San Diego, CA).

HPV transformed cells [3] = test: Anti-clonal effect on HPV transformed cells (cell line not stated); conditions: for IC50: Homo sapiens, minimal concentration reducing 50% of CFU of treated versus control, read-out: CID50 (50% clonal inhibitory dose), isolated polyphenols; for IC50 / IRR (inhibitory relative rate) / anticlonogenic / anti-clonal effect: isolated compound; for IRR (inhibitory relative rate): reverse ratio of CID50 to the reference CID50 of Quercetin (=1); for anticlonogenic / anti-clonal effect / clonal inhibition in combination: summary statement
Procedure: The inhibitory relative rate (IRR) (fourth column) provides an efficacy ranking of molecules.
The anti-clonogenic activity was evaluated both by the current standard qualitative plating efficiency assay and by quantitative live cell imaging analysis (INCUCYTE S3 Live Cell Analysis Imaging System—Sartorius Welwyn Garden City, Hertfordshire, UK). For qualitative plating efficiency assay cells were seeded at ‘clonal’ density (i.e., 0.5 cell/mm^2) either in medium containing the testing molecules or with plain medium and incubated without any further manipulation. After 9-14 days, according to the cell line specific proliferative index, the cultures were decanted and stained with 0.2% CV/methanol for 5 min at room temperature. All conditions were tested in triplicates in a 6-well culture plate. The anti-clonogenic activity of the treatments was evaluated using the colony forming units (CFU) of treated versus control cultures. The minimal concentration which could reduce 50% of the CFU of treated versus control culture was defined as colony-forming Inhibitory concentration (CID50). For quantitative evaluation cells were seeded in 96-well microplates at the above density and condition and allowed to grow the subsequent 8-day incubation in the INCUCYTE S3 Imaging System. Images were acquired at 12-hours intervals and colony formation and percentage of growth area covered (confluency) were then monitored through automated image analysis. The analysis parameters were as follows: segmentation adjustment=0.4; hole fill <5,000 μm^2; adjusted pixel=−2.

HPV transformed cells [4] = test: Antiproliferative effect on HPV transformed cells (cell line not stated); conditions: summary statement, isolated compound
Procedure: as §3, §4

[5] = 50 μM combined with Galangin 25 μM, HeLa, FIG. 11
[6] = combined with Galangin, Chrysin or Apigenin

| SMILES | Anti-clonal effect (HeLa cells; HeLa) | IC50 (HPV transformed cells [3]) | anticlonogenic / anti-clonal effect (HPV transformed cells [3]) | clonal inhibition in combination with Apigenin (HeLa cells; HeLa) | end point clonal assay, clonal inhibition alone (HeLa cells; HeLa) | also measured |
| --- | --- | --- | --- | --- | --- | --- |
| O=c1cc(-c2ccc(O)cc2)oc2cc(O)cc(O)c12 [Apigenin] | almost complete suppression of clonal activity | 25 µM | fair anti-clonal effect, although milder |  |  | clonal efficiency versus control untreated cells (Siha cells [1]; 12.5 μM, alone, Siha, FIG. 4): no difference to control untreated cells; end-point anti-clonal effect versus control untreated cells (Siha cells [1]; alone, SiHa): no difference to control untreated cells; antiproliferative effect (Siha cells [2]; 50 μM, FIG. 2): distinct, although milder effect; inhibition at 50 µM (Siha cells [2]; Homo sapiens, FIG. 2, read-out: suppression of proliferation): ~20%; IRR (inhibitory relative rate) (HPV transformed cells [3]): 2 |
| O=C(O)c1ccccc1 [Benzoic acid] | devoid of any significant anticlonogenic effect |  | devoid of. any direct anticlonogenic activity | almost complete clonal inhibition | neither of them induced any effect | clonal inhibition in combination with Chrysin (HeLa cells; HeLa): almost complete clonal inhibition; clonal inhibition in combination with Galangin (HeLa cells; [5]): almost complete clonal inhibition; synergy with Galangine, Apigenin and Chrysin (HeLa cells; in association, HeLa): synergize; clonal inhibition in combination (HPV transformed cells [3]; [6]): a certain grade of clonal inhibition |
| O=C(/C=C/c1ccc(O)c(O)c1)O[C@@H]1C[C@](O)(C(=O)O)C[C@@H](O)[C@H]1O [Chlorogenic acid] | devoid of any significant anticlonogenic effect |  | devoid of. any direct anticlonogenic activity | almost complete clonal inhibition | neither of them induced any effect | clonal inhibition in combination with Chrysin (HeLa cells; HeLa): almost complete clonal inhibition; clonal inhibition in combination with Galangin (HeLa cells; [5]): almost complete clonal inhibition; synergy with Galangine, Apigenin and Chrysin (HeLa cells; in association, HeLa): synergize; clonal inhibition in combination (HPV transformed cells [3]; [6]): a certain grade of clonal inhibition |
| O=c1cc(-c2ccccc2)oc2cc(O)cc(O)c12 [Chrysin] | almost complete suppression of clonal activity | 25 µM | fair anti-clonal effect, although milder |  |  | IRR (inhibitory relative rate) (HPV transformed cells [3]): 2 |
| O=c1c(O)c(-c2ccccc2)oc2cc(O)cc(O)c12 [Galangin] | almost complete suppression of clonal activity | 25 µM | sharp anticlonogenic and antiproliferative effect |  |  | anti-clonal effect at concentrations above CID50 (HeLa cells; higher concentrations than CID50, HeLa, FIG. 3): completely suppressive; end-point anti-clonal effect versus control untreated cells (Siha cells [1]; alone, SiHa): no difference to control untreated cells; inhibition at 25 µM (Siha cells [1]; Homo sapiens, 25 μM, single compound, 24 hours treatment then wash-out, SiHa, FIG. 12, read-out: clonal inhibition): ~50%; IRR (inhibitory relative rate) (HPV transformed cells [3]): 2; antiproliferative effect (HPV transformed cells [4]): sharp anticlonogenic and antiproliferative effect |
| O=C1c2c(O)cc(O)cc2O[C@H](c2ccccc2)[C@H]1O [Pinobanksin] | No effect |  |  |  |  |  |
| O=C1C[C@@H](c2ccccc2)Oc2cc(O)cc(O)c21 [Pinocembrin] | devoid of any significant anticlonogenic effect |  |  |  |  |  |
| O=C(O)c1ccc(O)c(O)c1 [Protocatechuic acid] | devoid of any significant anticlonogenic effect |  | devoid of. any direct anticlonogenic activity | almost complete clonal inhibition | neither of them induced any effect | clonal inhibition in combination with Chrysin (HeLa cells; HeLa): almost complete clonal inhibition; clonal inhibition in combination with Galangin (HeLa cells; [5]): almost complete clonal inhibition; synergy with Galangine, Apigenin and Chrysin (HeLa cells; in association, HeLa): synergize; clonal inhibition in combination (HPV transformed cells [3]; [6]): a certain grade of clonal inhibition |
| O=c1c(O)c(-c2ccc(O)c(O)c2)oc2cc(O)cc(O)c12 [Quercetin] | almost complete suppression of clonal activity | 50 µM | fair anti-clonal effect, although milder |  |  |  |
| C[C@@H]1O[C@@H](OC[C@H]2O[C@@H](Oc3c(-c4ccc(O)c(O)c4)oc4cc(O)cc(O)c4c3=O)[C@H](O)[C@@H](O)[C@@H]2O)[C@H](O)[C@H](O)[C@H]1O [Rutin] | No effect |  |  |  |  |  |
| COc1cc(C(=O)O)ccc1O [Vanillic acid] | devoid of any significant anticlonogenic effect |  | devoid of any direct activity | almost complete clonal inhibition | neither of them induced any effect | clonal inhibition in combination with Galangin (HeLa cells; 50 μM combined with Galangin 12.5 μM, HeLa, FIG. 9-10): almost complete clonal inhibition; synergistic effect with Galangine and Apigenin (HeLa cells; in association, HeLa, FIG. 9): synergistic effect; clonal inhibition in combination (HPV transformed cells [3]; combined with Galangin or Quercetin): a certain grade of clonal inhibition; anticlonogenic / anti-clonal effect (HPV transformed cells [3]; listed as Vanillic): devoid of. any direct anticlonogenic activity |
